In ChEMBL document CHEMBL1157712, “Hit to lead account of the discovery of bisbenzamide and related ureidobenzamide inhibitors of Rho kinase” (J Med Chem, 2010):
Values after ≈ are worked out from the molar mass of the structure shown.

What was measured:
[1] = (§1) Permeability from apical to basolateral side in human Caco-2 cells; assay type: ADME, cell-based; conditions: Caco-2, read-out: permeability
[2] = Permeability from basolateral to apical side in human Caco-2 cells; assay type: ADME, cell-based; conditions: read-out: permeability
[3] = biological target: T1, Protein kinase C epsilon type (Homo sapiens, UniProt Q02156); assay: Inhibition of PKCepsilon
T1 sequence (Q02156 whole entry): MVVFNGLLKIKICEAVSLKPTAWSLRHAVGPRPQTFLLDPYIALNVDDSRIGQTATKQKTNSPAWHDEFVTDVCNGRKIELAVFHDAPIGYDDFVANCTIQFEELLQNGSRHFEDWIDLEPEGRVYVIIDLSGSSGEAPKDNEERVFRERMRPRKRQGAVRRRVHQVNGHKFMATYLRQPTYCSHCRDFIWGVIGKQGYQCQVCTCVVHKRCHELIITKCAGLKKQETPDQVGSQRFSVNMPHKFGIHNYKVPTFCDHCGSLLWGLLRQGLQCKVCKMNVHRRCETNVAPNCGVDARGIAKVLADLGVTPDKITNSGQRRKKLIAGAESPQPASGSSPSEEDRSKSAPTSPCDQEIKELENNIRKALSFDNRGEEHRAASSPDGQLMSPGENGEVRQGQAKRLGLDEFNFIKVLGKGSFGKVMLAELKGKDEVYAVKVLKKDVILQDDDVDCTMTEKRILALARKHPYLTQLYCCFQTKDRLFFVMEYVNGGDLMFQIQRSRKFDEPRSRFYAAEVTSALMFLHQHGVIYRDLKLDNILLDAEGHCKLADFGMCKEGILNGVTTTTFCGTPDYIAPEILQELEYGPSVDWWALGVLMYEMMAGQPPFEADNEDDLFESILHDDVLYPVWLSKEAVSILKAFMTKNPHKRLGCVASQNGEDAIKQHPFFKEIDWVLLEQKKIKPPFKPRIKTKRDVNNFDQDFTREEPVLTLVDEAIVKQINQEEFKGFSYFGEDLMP

[4] = Membrane permeability by PAMPA assay; assay type: ADME; conditions: read-out: permeability
[5] = species: Rattus norvegicus; assay: Induction of relaxation activity of phenylephrine-induced Sprague-Dawley rat aortic ring contraction; assay type: functional; conditions: Aorta
[6] = Solubility at pH 7.4; assay type: physicochemical; conditions: buffer
[7] = biological target: T2, Cytochrome P450 1A2 (Homo sapiens, UniProt P05177); assay: Inhibition of human CYP1A2 by LCMS/MS assay; assay type: ADME
T2 sequence (P05177 whole entry): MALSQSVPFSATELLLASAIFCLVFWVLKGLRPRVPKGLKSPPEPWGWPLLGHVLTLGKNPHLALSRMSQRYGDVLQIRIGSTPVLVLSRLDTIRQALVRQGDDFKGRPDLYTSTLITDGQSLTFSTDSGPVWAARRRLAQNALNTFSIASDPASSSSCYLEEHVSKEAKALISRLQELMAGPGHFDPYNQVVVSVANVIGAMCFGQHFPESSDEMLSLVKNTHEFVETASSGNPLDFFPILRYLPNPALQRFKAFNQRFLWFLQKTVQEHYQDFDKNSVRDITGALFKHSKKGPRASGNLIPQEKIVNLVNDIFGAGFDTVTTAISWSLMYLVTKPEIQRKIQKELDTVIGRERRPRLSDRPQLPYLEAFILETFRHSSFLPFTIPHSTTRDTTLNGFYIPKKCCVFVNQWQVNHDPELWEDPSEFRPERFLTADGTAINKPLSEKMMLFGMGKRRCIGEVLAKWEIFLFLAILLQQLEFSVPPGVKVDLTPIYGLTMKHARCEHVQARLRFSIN

[8] = biological target: T3, Cytochrome P450 2C9 (Homo sapiens, UniProt P11712); assay: Inhibition of human CYP2C9 by LCMS/MS assay; assay type: ADME
T3 sequence (P11712 whole entry): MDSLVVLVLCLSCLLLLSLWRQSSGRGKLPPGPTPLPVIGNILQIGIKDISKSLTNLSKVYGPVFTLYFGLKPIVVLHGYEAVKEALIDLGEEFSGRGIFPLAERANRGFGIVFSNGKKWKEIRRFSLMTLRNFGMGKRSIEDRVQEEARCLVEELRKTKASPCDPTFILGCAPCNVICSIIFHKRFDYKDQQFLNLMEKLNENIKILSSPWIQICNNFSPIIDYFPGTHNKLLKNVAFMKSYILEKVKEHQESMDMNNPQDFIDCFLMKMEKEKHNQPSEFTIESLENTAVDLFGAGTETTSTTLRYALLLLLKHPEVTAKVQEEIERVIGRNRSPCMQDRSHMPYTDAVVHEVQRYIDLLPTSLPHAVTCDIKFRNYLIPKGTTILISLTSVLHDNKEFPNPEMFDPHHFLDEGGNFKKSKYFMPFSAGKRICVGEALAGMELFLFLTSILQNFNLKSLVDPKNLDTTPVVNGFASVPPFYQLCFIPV

[9] = biological target: T4, Cytochrome P450 2D6 (Homo sapiens, UniProt P10635); assay: Inhibition of human CYP2D6 by LCMS/MS assay; assay type: ADME
T4 sequence (P10635 whole entry): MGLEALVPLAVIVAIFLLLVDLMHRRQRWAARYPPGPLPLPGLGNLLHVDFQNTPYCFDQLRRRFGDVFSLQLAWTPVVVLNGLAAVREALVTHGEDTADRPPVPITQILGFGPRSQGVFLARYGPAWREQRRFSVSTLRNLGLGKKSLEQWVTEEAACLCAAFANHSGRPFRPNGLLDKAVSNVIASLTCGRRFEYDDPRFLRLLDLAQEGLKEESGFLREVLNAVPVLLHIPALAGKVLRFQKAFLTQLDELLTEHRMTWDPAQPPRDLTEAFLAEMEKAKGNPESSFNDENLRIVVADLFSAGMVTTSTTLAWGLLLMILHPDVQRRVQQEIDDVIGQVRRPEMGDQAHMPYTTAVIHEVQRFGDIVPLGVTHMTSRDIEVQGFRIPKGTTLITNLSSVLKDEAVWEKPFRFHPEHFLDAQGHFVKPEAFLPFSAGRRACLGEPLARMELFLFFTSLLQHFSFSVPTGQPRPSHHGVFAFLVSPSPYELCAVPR

[10] = biological target: T5, Cytochrome P450 3A4 (Homo sapiens, UniProt P08684); assay: Inhibition of human CYP3A4 by LCMS/MS assay; assay type: ADME
T5 sequence (P08684 whole entry): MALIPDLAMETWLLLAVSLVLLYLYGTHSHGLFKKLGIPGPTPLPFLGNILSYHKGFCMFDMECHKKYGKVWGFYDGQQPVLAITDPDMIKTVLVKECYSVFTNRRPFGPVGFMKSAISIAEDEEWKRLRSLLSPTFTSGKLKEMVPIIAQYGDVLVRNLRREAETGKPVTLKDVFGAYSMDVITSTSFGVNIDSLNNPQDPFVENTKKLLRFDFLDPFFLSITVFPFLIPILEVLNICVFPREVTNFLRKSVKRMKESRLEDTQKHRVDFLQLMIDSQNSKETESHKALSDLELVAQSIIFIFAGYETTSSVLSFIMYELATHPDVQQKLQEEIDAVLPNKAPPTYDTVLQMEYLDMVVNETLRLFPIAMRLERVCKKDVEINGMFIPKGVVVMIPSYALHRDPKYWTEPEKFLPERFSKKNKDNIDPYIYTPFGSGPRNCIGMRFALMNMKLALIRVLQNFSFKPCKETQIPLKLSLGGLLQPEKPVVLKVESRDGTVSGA

[11] = biological target: Serine/threonine-protein kinase N2 (Homo sapiens, UniProt Q16513)
[12] = biological target: Serine/threonine-protein kinase MRCK beta (Homo sapiens) (UniProt Q9Y5S2); assay: Inhibition of CDC42BPB
Serine/threonine-protein kinase MRCK beta (Homo sapiens), sequence (Q9Y5S2 whole entry, looked up): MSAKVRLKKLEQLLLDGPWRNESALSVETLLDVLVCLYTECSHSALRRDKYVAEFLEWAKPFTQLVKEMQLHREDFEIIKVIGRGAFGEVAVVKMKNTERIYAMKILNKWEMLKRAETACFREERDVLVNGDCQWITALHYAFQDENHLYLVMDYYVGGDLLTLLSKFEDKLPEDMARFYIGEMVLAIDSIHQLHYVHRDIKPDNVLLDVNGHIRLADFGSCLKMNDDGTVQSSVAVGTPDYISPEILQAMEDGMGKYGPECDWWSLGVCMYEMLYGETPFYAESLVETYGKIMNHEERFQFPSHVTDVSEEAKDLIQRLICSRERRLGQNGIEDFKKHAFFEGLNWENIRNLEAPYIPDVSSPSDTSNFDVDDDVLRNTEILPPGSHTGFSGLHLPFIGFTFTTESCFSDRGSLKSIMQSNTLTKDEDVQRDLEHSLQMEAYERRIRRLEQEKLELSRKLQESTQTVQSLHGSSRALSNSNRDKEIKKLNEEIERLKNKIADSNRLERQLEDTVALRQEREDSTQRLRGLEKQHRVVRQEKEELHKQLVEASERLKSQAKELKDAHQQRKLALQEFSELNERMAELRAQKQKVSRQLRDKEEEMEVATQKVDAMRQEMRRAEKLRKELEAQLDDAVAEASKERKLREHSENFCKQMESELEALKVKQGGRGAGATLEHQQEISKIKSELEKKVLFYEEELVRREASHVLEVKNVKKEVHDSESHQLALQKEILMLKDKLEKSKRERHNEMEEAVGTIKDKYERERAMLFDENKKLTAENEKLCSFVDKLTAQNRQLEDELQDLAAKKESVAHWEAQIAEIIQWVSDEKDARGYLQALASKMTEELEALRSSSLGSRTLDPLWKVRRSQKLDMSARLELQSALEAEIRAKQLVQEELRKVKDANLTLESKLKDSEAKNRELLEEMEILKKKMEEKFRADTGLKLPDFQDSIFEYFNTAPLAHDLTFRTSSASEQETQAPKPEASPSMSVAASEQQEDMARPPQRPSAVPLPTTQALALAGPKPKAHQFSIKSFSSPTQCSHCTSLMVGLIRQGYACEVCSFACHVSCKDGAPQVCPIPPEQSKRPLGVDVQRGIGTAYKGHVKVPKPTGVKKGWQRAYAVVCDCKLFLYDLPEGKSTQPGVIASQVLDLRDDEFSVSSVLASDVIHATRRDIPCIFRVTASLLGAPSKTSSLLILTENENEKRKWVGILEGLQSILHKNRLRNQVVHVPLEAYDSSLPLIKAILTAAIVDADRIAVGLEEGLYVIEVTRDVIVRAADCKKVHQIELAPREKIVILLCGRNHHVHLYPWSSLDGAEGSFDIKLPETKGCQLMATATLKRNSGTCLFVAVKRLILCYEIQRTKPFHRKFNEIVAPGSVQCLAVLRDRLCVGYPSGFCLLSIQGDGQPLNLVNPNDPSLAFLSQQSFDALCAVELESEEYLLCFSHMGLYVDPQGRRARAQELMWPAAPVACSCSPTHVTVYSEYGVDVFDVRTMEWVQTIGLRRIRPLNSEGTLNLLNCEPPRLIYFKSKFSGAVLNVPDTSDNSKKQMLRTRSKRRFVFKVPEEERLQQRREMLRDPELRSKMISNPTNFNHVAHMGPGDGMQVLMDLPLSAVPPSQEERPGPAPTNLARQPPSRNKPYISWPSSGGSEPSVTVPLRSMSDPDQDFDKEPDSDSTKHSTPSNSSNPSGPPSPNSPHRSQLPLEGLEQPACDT

[13] = Metabolic stability in human liver microsomes assessed as half life; assay type: ADME, Microsome
[14] = biological target: T2, Cytochrome P450 1A2; assay: Inhibition of human CYP1A2 by fluorescence assay; assay type: ADME
[15] = biological target: T3, Cytochrome P450 2C9; assay: Inhibition of human CYP2C9 by fluorescence assay; assay type: ADME
[16] = biological target: Cytochrome P450 2C19 (Homo sapiens, UniProt P33261); assay: Inhibition of human CYP2C19 by fluorescence assay; assay type: ADME
Cytochrome P450 2C19, sequence (P33261 whole entry): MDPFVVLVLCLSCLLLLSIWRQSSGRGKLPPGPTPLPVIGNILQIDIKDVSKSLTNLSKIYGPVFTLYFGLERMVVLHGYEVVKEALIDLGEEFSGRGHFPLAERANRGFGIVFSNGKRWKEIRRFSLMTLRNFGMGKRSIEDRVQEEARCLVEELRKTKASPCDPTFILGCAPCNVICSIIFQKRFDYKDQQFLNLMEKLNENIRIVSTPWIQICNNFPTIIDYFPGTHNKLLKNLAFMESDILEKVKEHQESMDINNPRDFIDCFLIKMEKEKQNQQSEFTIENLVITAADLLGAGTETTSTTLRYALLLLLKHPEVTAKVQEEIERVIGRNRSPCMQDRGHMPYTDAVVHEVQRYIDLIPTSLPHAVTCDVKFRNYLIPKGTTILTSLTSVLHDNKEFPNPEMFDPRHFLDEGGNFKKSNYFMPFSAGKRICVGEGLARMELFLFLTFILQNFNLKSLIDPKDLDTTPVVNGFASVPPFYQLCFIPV

[17] = biological target: T4, Cytochrome P450 2D6; assay: Inhibition of human CYP2D6 by fluorescence assay; assay type: ADME
[18] = biological target: Rho-associated protein kinase 1 (Homo sapiens, UniProt Q13464); assay: Inhibition of human ROCK1 by homogenous luciferase assay
[19] = Solubility at pH 4.5; assay type: physicochemical; conditions: buffer
[20] = biological target: T5, Cytochrome P450 3A4; assay: Inhibition of human CYP3A4 using BFC substrate by fluorescence assay; assay type: ADME
[21] = biological target: T5, Cytochrome P450 3A4; assay: Inhibition of human CYP3A4 using BQ substrate by fluorescence assay; assay type: ADME
[22] = biological target: T6, Rho-associated protein kinase 2 (Homo sapiens, UniProt O75116)
T6 sequence (O75116 whole entry): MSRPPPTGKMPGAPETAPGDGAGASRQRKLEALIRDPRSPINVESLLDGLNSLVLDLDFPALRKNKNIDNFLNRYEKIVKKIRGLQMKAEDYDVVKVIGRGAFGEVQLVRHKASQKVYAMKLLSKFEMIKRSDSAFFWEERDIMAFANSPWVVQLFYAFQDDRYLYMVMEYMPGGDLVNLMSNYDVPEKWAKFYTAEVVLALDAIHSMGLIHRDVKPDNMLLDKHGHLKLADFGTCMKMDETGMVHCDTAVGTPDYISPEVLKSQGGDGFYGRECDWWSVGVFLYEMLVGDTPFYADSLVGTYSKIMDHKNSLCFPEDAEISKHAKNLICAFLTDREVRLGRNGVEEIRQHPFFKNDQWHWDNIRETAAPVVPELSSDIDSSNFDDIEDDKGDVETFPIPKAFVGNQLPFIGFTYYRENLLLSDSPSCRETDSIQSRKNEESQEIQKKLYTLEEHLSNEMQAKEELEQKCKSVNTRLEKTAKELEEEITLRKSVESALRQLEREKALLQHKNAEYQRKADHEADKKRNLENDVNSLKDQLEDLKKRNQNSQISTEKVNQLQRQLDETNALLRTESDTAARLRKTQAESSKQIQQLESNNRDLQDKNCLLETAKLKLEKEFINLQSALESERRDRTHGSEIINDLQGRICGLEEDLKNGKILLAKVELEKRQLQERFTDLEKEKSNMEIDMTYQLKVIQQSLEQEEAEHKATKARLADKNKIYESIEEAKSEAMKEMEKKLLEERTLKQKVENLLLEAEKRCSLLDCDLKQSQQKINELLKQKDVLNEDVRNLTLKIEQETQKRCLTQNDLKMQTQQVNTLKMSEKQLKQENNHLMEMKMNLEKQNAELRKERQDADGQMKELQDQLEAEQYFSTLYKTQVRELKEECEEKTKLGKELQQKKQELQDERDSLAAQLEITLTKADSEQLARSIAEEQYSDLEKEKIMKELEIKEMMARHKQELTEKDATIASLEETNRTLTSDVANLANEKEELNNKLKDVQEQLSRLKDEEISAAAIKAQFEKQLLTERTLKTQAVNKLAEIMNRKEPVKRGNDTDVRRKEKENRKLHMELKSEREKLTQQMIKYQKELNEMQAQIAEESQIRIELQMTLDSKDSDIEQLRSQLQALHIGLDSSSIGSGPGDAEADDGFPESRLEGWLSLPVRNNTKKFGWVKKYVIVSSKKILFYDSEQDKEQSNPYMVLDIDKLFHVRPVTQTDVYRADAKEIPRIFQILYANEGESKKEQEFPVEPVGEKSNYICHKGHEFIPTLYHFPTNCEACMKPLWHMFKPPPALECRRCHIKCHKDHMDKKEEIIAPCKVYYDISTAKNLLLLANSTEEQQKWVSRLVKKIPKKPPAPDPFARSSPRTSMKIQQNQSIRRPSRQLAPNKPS
Description: Inhibition of human ROCK2 by homogenous luciferase assay

[23] = in vitro; conditions: human, Caco-2
Description: Ratio of permeability from basolateral to apical side over apical to basolateral side in human Caco-2 cells

[24] = system: Caco-2; assay: as §1; assay type: ADME, cell-based; conditions: caco-2, BLD = below limit of detection
[25] = Bioavailability in rat; assay type: ADME, organism-based; conditions: in vivo
[26] = biological target: T6, Rho-associated protein kinase 2; assay: Inhibition of human ROCK2 by IMAP assay

Row | SMILES | Papp A→B [1] | Papp B→A [2] | IC50 [3] | Papp [4] | IC50 [5] | solubility [6] | IC50 [11] | IC50 [12] | half-life [13] | IC50 [14] | IC50 [15] | IC50 [16] | IC50 [17] | IC50 [20] | IC50 [21] | IC50 [22] | also measured
1 | COc1ccc(C(=O)NCc2cccc(C(=O)Nc3ccc(CN(C)C)cc3)c2)cc1Cl | 7.7 ×10⁻⁶ cm/s | 45.3 ×10⁻⁶ cm/s | > 5 µM | 24 ×10⁻⁶ cm/s | 1.6 µM | > 96 µg/mL | > 5 µM | > 5 µM | – | – | – | – | – | – | – | – | IC50 [7]: > 30 µM; IC50 [8]: > 30 µM; IC50 [9]: > 30 µM; IC50 [10]: > 30 µM
2 | COc1ccc(C(=O)NCc2cccc(C(=O)NCCc3ccncc3)c2)cc1OC | 0.5 ×10⁻⁶ cm/s | 29.1 ×10⁻⁶ cm/s | – | – | 1.9 µM | 63 µg/mL (≈ 150 µM) | – | – | 10 min | > 30 µM | 16 µM | > 30 µM | > 30 µM | 4 µM | 21 µM | 2.3 µM | IC50 [18]: 4.3 µM; solubility [19]: > 100 µg/mL; efflux ratio [23]: 58
3 | COc1ccc(C(=O)NCc2cccc(C(=O)Nc3ccc(CN(C)C)cc3)c2)cc1OC | – | 14.6 ×10⁻⁶ cm/s | > 5 µM | 10 ×10⁻⁶ cm/s | 6 µM | > 100 µg/mL | > 5 µM | > 5 µM | 66 min | > 30 µM | > 30 µM | > 30 µM | > 30 µM | 8.5 µM | > 30 µM | 0.069 µM | permeability [24]: BLD; bioavailability [25]: 1.8%; IC50 [26]: 0.23 µM
